Measured values reported in publication PMC9003339 (2022).
One block for each compound: values may come before it.

Tests used:
[1] = test system: ATP aptamer (screened, 32 nt, 5'FAM modified) (DNA, aptamer) TGGCGTCTGCATGCAGGTCGACGCATGCGCCG; assay: graphene oxide fluorescence recovery; conditions: 5 mM KCl, 100 mM NaCl, 1 mM MgCl2, 50 mM Tris-HCl pH 7.4, 25 °C, aptamer 300 nM
[2] = test system: Classic ATP aptamer (DNA, aptamer) ACCTGGGGGAGTATTGCGGAGGAAGGT; assay: graphene oxide fluorescence recovery; conditions: 5 mM KCl, 100 mM NaCl, 1 mM MgCl2, 50 mM Tris-HCl pH 7.4, 25 °C, aptamer 300 nM
[3] = test system: FAM-labeled functional chimera sequence (DNA, aptamer) TGGCGTCTGCATGCAGGTCGACGCATGCGCCGCCTGAGCTTAGAT; assay: fluorescence recovery from graphene oxide; conditions: 5 mM KCl, 100 mM NaCl, 1 mM MgCl2; 50 mM Tris-HCl pH 7.4, 25 °C; chimera 2 μM, ATP 1 mM
[4] = test system: Functional chimera sequence (DNA, aptamer) TGGCGTCTGCATGCAGGTCGACGCATGCGCCGCCTGAGCTTAGAT; assay: release from graphene oxide, PAGE; conditions: 5 mM KCl, 100 mM NaCl, 1 mM MgCl2; 50 mM Tris-HCl pH 7.4, 25 °C; chimera 2 μM, ATP 1 mM
[5] = test system: ATP aptamer (screened, 32 nt, 5'FAM modified) (DNA, aptamer) TGGCGTCTGCATGCAGGTCGACGCATGCGCCG; assay: graphene oxide fluorescence assay, aptamer titrated at fixed ATP; conditions: 5 mM KCl, 100 mM NaCl, 1 mM MgCl2, 50 mM Tris-HCl pH 7.4, 25 °C, aptamer 50–500 nM, 1 μL of 100 mM in 200 μL

- binding ([1]; 1 μL of 100 mM AMP, ATP 4.7-fold higher): weak
- binding ([2]; 1 μL of 100 mM AMP): yes
Compound: Nc1ncnc2c1ncn2[C@@H]1O[C@H](COP(=O)(O)O)[C@@H](O)[C@H]1O

- binding ([2]; 1 μL of 100 mM ATP): yes
- binding [3]: yes
- binding [4]: yes
- Kd [5]: 0.07061 ± 0.02091 µM
Compound: Nc1ncnc2c1ncn2[C@@H]1O[C@H](COP(=O)(O)OP(=O)(O)OP(=O)(O)O)[C@@H](O)[C@H]1O

- binding ([1]; 1 μL of 100 mM ADP, ATP 2.4-fold higher): weak
- binding ([2]; 1 μL of 100 mM ADP): yes
Compound: Nc1ncnc2c1ncn2[C@@H]1O[C@H](COP(=O)(O)OP(=O)(O)O)[C@@H](O)[C@H]1O
